“And” between values parts separate entries of the source, which are not always exact repeats. Equal entries are not always repeated. Toxic doses and inconclusive results are not listed.
Test system: L1210 leukemia ip in BDF1 mice, survival T/C
Test: NCI In Vivo Anticancer Drug Screen. Data for tumor model L1210 Leukemia (intraperitoneal) in B6D2F1 (BDF1) mice
Details: endpoint: mean survival time, higher = longer survival
How it was run: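 Ratio derived from survival: compound-dosed mice over vehicle-dosed mice, all bearing a transplantable tumor.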

[1] = dose: 100.0 mg/kg/injection, schedule: Q04DX002 (ip), vehicle: Klucel (hydroxypropylcellulose) (HPC)
[2] = dose: 200.0 mg/kg/injection, schedule: Q04DX002 (ip), vehicle: Klucel (hydroxypropylcellulose) (HPC)
[3] = dose: 400.0 mg/kg/injection, schedule: Q04DX002 (ip), vehicle: Klucel (hydroxypropylcellulose) (HPC)
[4] = dose: 100.0 mg/kg/injection, schedule: Q04DX003 (ip), vehicle: Klucel (hydroxypropylcellulose) (HPC)
[5] = dose: 200.0 mg/kg/injection, schedule: Q04DX003 (ip), vehicle: Klucel (hydroxypropylcellulose) (HPC)
[6] = dose: 400.0 mg/kg/injection, schedule: Q04DX003 (ip), vehicle: Klucel (hydroxypropylcellulose) (HPC)
[7] = dose: 100.0 mg/kg/injection, schedule: Q04DX003 (ip), vehicle: saline
[8] = dose: 200.0 mg/kg/injection, schedule: Q04DX003 (ip), vehicle: saline
[9] = dose: 400.0 mg/kg/injection, schedule: Q04DX003 (ip), vehicle: saline
[10] = dose: 100.0 mg/kg/injection, schedule: Q01DX001 (ip), vehicle: saline

CCOC(=O)CNc1cccc(C(F)(F)F)c1
T/C (dose: 100.0 mg/kg/injection, schedule: Q01DX009 (ip), vehicle: carboxymethylcellulose (CMC)): 98 % of control
T/C [1]: 100 % of control and 105 % of control
T/C (dose: 200.0 mg/kg/injection, schedule: Q01DX009 (ip), vehicle: carboxymethylcellulose (CMC)): 93 % of control
T/C [2]: 109 % of control and 114 % of control
T/C [3]: 98 % of control

OC1CC2CCC(C2)C1(O)c1ccccc1 (configuration not stated)
T/C [4]: 93 % of control
T/C [5]: 117 % of control
T/C [6]: 93 % of control

COC(=O)C(C)CN1CC(C)OC(C)C1 (configuration not stated)
T/C (dose: 100.0 mg/kg/injection, schedule: Q01DX009 (ip), vehicle: saline): 95 % of control
T/C [7]: 102 % of control
T/C (dose: 200.0 mg/kg/injection, schedule: Q01DX009 (ip), vehicle: saline): 97 % of control
T/C [8]: 98 % of control
T/C (dose: 400.0 mg/kg/injection, schedule: Q01DX009 (ip), vehicle: saline): 95 % of control
T/C [9]: 104 % of control

O=[N+]([O-])c1cccc(-c2cnc(-c3ccccc3)cc2-c2ccccc2O)c1
T/C (dose: 100.0 mg/kg/injection, schedule: Q04DX002 (ip), vehicle: saline with Tween-80): 94 % of control
T/C (dose: 200.0 mg/kg/injection, schedule: Q04DX002 (ip), vehicle: saline with Tween-80): 94 % of control
T/C (dose: 400.0 mg/kg/injection, schedule: Q04DX002 (ip), vehicle: saline with Tween-80): 102 % of control

CN(C)P1(=O)N(c2ccc(Cl)cc2)P(=O)(N(C)C)N1c1ccc(Cl)cc1 (configuration not stated)
T/C (dose: 100.0 mg/kg/injection, schedule: Q04DX002 (ip), vehicle: saline): 96 % of control
T/C (dose: 200.0 mg/kg/injection, schedule: Q04DX002 (ip), vehicle: saline): 100 % of control
T/C (dose: 400.0 mg/kg/injection, schedule: Q04DX002 (ip), vehicle: saline): 93 % of control

CN(N=O)C(=O)NCCOC(=O)N(C)N=O
T/C (dose: 6.25 mg/kg/injection, schedule: Q01DX Z (ip), vehicle: carboxymethylcellulose (CMC)): 124 % of control
T/C (dose: 12.5 mg/kg/injection, schedule: Q01DX Z (ip), vehicle: carboxymethylcellulose (CMC)): 124 % of control

CC(O)(CCc1ccccc1)CC(O)(C(F)(F)F)C(F)(F)F (configuration not stated)
T/C (dose: 100.0 mg/kg/injection, schedule: Q04DX003 (ip), vehicle: saline with Tween-80): 101 % of control
T/C (dose: 200.0 mg/kg/injection, schedule: Q04DX003 (ip), vehicle: saline with Tween-80): 94 % of control
T/C (dose: 400.0 mg/kg/injection, schedule: Q04DX003 (ip), vehicle: saline with Tween-80): 95 % of control

ONc1nc(NO)c2[nH]cnc2n1
T/C (dose: 0.25 mg/kg/injection, schedule: Q01DX009 (ip), vehicle: other): 109 % of control
T/C (dose: 1.2 mg/kg/injection, schedule: Q01DX009 (ip), vehicle: carboxymethylcellulose (CMC)): 115 % of control
T/C (dose: 2.5 mg/kg/injection, schedule: Q01DX009 (ip), vehicle: other): 165 % of control
T/C (dose: 3.7 mg/kg/injection, schedule: Q01DX009 (ip), vehicle: carboxymethylcellulose (CMC)): 150 % of control
T/C (dose: 5.0 mg/kg/injection, schedule: Q01DX009 (ip), vehicle: other): 202 % of control
T/C (dose: 10.0 mg/kg/injection, schedule: Q01DX009 (ip), vehicle: other): 210 % of control
T/C (dose: 10.5 mg/kg/injection, schedule: Q01DX009 (ip), vehicle: other): 203 % of control
T/C (dose: 18.0 mg/kg/injection, schedule: Q01DX009 (ip), vehicle: other): 265 % of control
T/C (dose: 18.7 mg/kg/injection, schedule: Q01DX009 (oral), vehicle: carboxymethylcellulose (CMC)): 114 % of control
T/C (dose: 30.0 mg/kg/injection, schedule: Q01DX009 (ip), vehicle: carboxymethylcellulose (CMC)): 150 % of control
T/C (dose: 30.0 mg/kg/injection, schedule: Q01DX009 (ip), vehicle: other): 192 % of control
T/C (dose: 44.0 mg/kg/injection, schedule: Q01DX001 (ip), vehicle: carboxymethylcellulose (CMC)): 154 % of control
T/C (dose: 60.0 mg/kg/injection, schedule: Q01DX009 (ip), vehicle: carboxymethylcellulose (CMC)): 150 % of control and 153 % of control
T/C (dose: 66.0 mg/kg/injection, schedule: Q01DX001 (ip), vehicle: carboxymethylcellulose (CMC)): 172 % of control
T/C (dose: 75.0 mg/kg/injection, schedule: Q01DX009 (oral), vehicle: carboxymethylcellulose (CMC)): 122 % of control
T/C (dose: 100.0 mg/kg/injection, schedule: Q01DX001 (ip), vehicle: carboxymethylcellulose (CMC)): 175 % of control
T/C (dose: 150.0 mg/kg/injection, schedule: Q01DX001 (ip), vehicle: carboxymethylcellulose (CMC)): 214 % of control

COC(=O)C1(C(=O)OC)C=CCCC1=O
T/C [4]: 108 % of control
T/C [5]: 107 % of control
T/C [6]: 96 % of control

CCCCC(=O)OC1CC2CCC1(C)C2(C)C (configuration not stated)
T/C (dose: 100.0 mg/kg/injection, schedule: Q01DX009 (ip), vehicle: Klucel (hydroxypropylcellulose) (HPC)): 102 % of control
T/C [4]: 96 % of control
T/C (dose: 200.0 mg/kg/injection, schedule: Q01DX009 (ip), vehicle: Klucel (hydroxypropylcellulose) (HPC)): 102 % of control
T/C [5]: 96 % of control
T/C (dose: 400.0 mg/kg/injection, schedule: Q01DX009 (ip), vehicle: Klucel (hydroxypropylcellulose) (HPC)): 104 % of control
T/C [6]: 100 % of control

Cc1ccc(S(=O)(=O)OC2CCCCC2c2ccccc2C)cc1 (configuration not stated)
T/C (dose: 100.0 mg/kg/injection, schedule: Q01DX001 (ip), vehicle: steriod suspending solution): 105 % of control
T/C (dose: 200.0 mg/kg/injection, schedule: Q01DX001 (ip), vehicle: steriod suspending solution): 112 % of control
T/C (dose: 400.0 mg/kg/injection, schedule: Q01DX001 (ip), vehicle: steriod suspending solution): 98 % of control

O=C(O)CCC(NC(=O)C1CCCCC1C(=O)O)C(=O)O (configuration not stated)
T/C [7]: 96 % of control
T/C [8]: 86 % of control
T/C [9]: 87 % of control

CN=C(N)Nc1ccc(NC(=O)Nc2ccc(NC(=O)Nc3ccc(NC(N)=NC)cc3)cc2)cc1
T/C (dose: 3.75 mg/kg/injection, schedule: Q01DX Z (ip), vehicle: carboxymethylcellulose (CMC)): 100 % of control
T/C (dose: 7.5 mg/kg/injection, schedule: Q01DX Z (ip), vehicle: carboxymethylcellulose (CMC)): 110 % of control
T/C (dose: 30.0 mg/kg/injection, schedule: Q01DX Z (ip), vehicle: carboxymethylcellulose (CMC)): 170 % of control
T/C (dose: 31.0 mg/kg/injection, schedule: Q01DX Z (oral), vehicle: carboxymethylcellulose (CMC)): 100 % of control
T/C (dose: 62.0 mg/kg/injection, schedule: Q01DX Z (oral), vehicle: carboxymethylcellulose (CMC)): 110 % of control
T/C (dose: 125.0 mg/kg/injection, schedule: Q01DX Z (oral), vehicle: carboxymethylcellulose (CMC)): 95 % of control
T/C (dose: 250.0 mg/kg/injection, schedule: Q01DX Z (oral), vehicle: carboxymethylcellulose (CMC)): 101 % of control

O=c1cc(/C=N/O)c2cccc3c2n1CCC3
T/C (dose: 100.0 mg/kg/injection, schedule: Q01DX001 (ip), vehicle: saline with Tween-80): 100 % of control
T/C (dose: 200.0 mg/kg/injection, schedule: Q01DX001 (ip), vehicle: saline with Tween-80): 91 % of control
T/C (dose: 400.0 mg/kg/injection, schedule: Q01DX001 (ip), vehicle: saline with Tween-80): 94 % of control

O=[N+]([O-])c1ccccn1
T/C (dose: 6.25 mg/kg/injection, schedule: Q01DX009 (ip), vehicle: saline): 102 % of control
T/C (dose: 6.25 mg/kg/injection, schedule: Q04DX003 (ip), vehicle: saline): 95 % of control
T/C (dose: 12.5 mg/kg/injection, schedule: Q01DX009 (ip), vehicle: saline): 102 % of control
T/C (dose: 12.5 mg/kg/injection, schedule: Q04DX003 (ip), vehicle: saline): 98 % of control
T/C (dose: 25.0 mg/kg/injection, schedule: Q04DX003 (ip), vehicle: saline): 93 % of control
T/C (dose: 75.0 mg/kg/injection, schedule: Q01DX001 (ip), vehicle: other): 98 % of control

COC(=O)c1cc(Cl)cc(NC(C)=O)c1Cl
T/C [1]: 97 % of control
T/C [2]: 97 % of control
T/C [3]: 97 % of control

CCOC(=O)C1c2cccc(O)c2C=CN1C(C)=O (configuration not stated)
T/C [7]: 101 % of control
T/C [8]: 97 % of control
T/C [9]: 104 % of control

CC(=O)O[C@@H]1C[C@@]2(C)[C@@H]3CC=C4[C@@H](C[C@H](O)C(=O)C4(C)C)[C@]3(C)C(=O)C[C@]2(C)[C@H]1[C@@](C)(O)C(=O)/C=C/C(C)(C)OC(C)=O
T/C (dose: 50.0 mg/kg/injection, schedule: Q01DX001 (ip), vehicle: saline): 102 % of control
T/C [10]: 107 % of control

COC(=O)c1cccc2c1C(Br)C(Br)c1ccccc1-2 (configuration not stated)
T/C [10]: 101 % of control
T/C [7]: 100 % of control
T/C (dose: 200.0 mg/kg/injection, schedule: Q01DX001 (ip), vehicle: saline): 98 % of control
T/C [8]: 97 % of control
T/C (dose: 400.0 mg/kg/injection, schedule: Q01DX001 (ip), vehicle: saline): 98 % of control
T/C [9]: 94 % of control

Reference: PubChem BioAssay AID248 (DTP/NCI, 2004)
